Results from patent US11026943B2, “Aminoquinoline derivatives and uses thereof” (UNIVERSITY OF DELHI, priority 2012, dated 2021).

assay: Solubility (solvent listed in compound tables); assay type: physicochemical; settings: solvent named, Table 3

SOLUBILITY	Structure (SMILES)
DMSO	COc1ccc(Nc2nc(NCCNCc3c4ccc(Cl)cc4nc4ccc(OC)cc34)nc(N3CCOCC3)n2)cc1 [ATH 184]
DMSO	Clc1ccc2c(N3CCN(c4nccc(Nc5ccc(Br)cc5)n4)CC3)ccnc2c1 [ATH 226]
DMSO	Clc1ccc2c(NCCCNc3nc(Nc4ccccc4)nc(N4CCOCC4)n3)ccnc2c1 [SM 341]
DMSO	Clc1ccc2c(NCCCNc3nccc(N4CCCCC4)n3)ccnc2c1 [SM 724]
DMSO	Cc1cc(NCCCNc2ccnc3cc(Cl)ccc23)nc(N2CCN(C)CC2)n1 [SM 494]
DMSO	Cc1cc(Cl)nc(NCCCNc2ccnc3cc(Cl)ccc23)n1 [SM 484B]
DMSO	CCc1ccc(Nc2nc(NCCCCNc3ccnc4cc(Cl)ccc34)nc(N3CCOCC3)n2)cc1 [SM 358]
DMSO	COc1cc(Nc2nc(NCCCNc3c4ccc(Cl)cc4nc4ccc(OC)cc34)nc(N3CCN(c4ccccc4)CC3)n2)cc(OC)c1 [ATH 171]
DMSO	Clc1ccc2c(NCCNc3cc(Cl)nc(N4CCCCC4)n3)ccnc2c1 [SM 697]
DMSO	COc1ccc(Nc2nc(NCCCNc3c4ccc(Cl)cc4nc4ccc(OC)cc34)nc(N3CCN(c4ccccc4)CC3)n2)cc1 [ATH 198]
DMSO	OCCCNc1nc(NCCCNc2ccnc3cc(Cl)ccc23)nc(N2CCOCC2)n1 [SM 351]
DMSO	CCc1ccc(Nc2nc(NCCNc3ccnc4cc(Cl)ccc34)nc(N3CCOCC3)n2)cc1 [SM 335]
DMSO	COc1ccc(Nc2nc(NCCCNc3c4ccc(Cl)cc4nc4ccc(OC)cc34)nc(N(C)C)n2)cc1 [ATH 166]
DMSO	Clc1ccc2c(N3CCN(c4ccnc(N5CCCCC5)n4)CC3)ccnc2c1 [ATH 231]
DMSO	CCN(CC)c1nc(Cl)nc(NCCNc2ccnc3cc(Cl)ccc23)n1 [SM 137]
DMSO	COc1ccc2nc3cc(Cl)ccc3c(CNCCNc3nc(N4CCN(c5ccccc5)CC4)nc(N4CCN(c5ccccc5)CC4)n3)c2c1 [ATH 179]
DMSO	Cc1ccccc1Nc1nc(NCCNc2ccnc3cc(Cl)ccc23)nc(Nc2ccccc2C)n1 [SM 144]
DMSO	Clc1ccc2c(NCCNc3nc(Cl)nc(NCCNc4ccnc5cc(Cl)ccc45)n3)ccnc2c1 [SM 133]
DMSO	CN1CCN(c2nc(Cl)cc(NCCCNc3ccnc4cc(Cl)ccc34)n2)CC1 [SM 713]
DMSO	Cc1cc(N2CCN(c3ccnc4cc(Cl)ccc34)CC2)nc(N2CCCCC2)n1 [ATH 240]

SOLUBILITY	Structure (SMILES)
DMSO	CN1CCN(c2nc(Cl)cc(NCCNc3ccnc4cc(Cl)ccc34)n2)CC1 [SM 701]
DMSO	CN1CCN(c2ccnc(NCCCNc3ccnc4cc(Cl)ccc34)n2)CC1 [SM 726]
DMSO	COc1cc(Nc2nc(NC(C)CNc3ccnc4cc(Cl)ccc34)nc(N3CCOCC3)n2)cc(OC)c1 (stereo not drawn) [SM 130]
DMSO	COc1cc(Nc2nc(NCCNc3c4ccc(Cl)cc4nc4ccc(OC)cc34)nc(NC3CCCCC3)n2)cc(OC)c1 [ATH 192]
DMSO	Clc1ccc2c(NCCNc3nc(Cl)cc(Cl)n3)ccnc2c1 [SM 695B]
DMSO	Fc1ccc(Nc2nc(NCCCNc3ccnc4cc(Cl)ccc34)nc(N3CCOCC3)n2)cc1 [SM 339]
DMSO	Fc1ccc(Nc2nc(NCCNc3ccnc4cc(Cl)ccc34)nc(N3CCOCC3)n2)cc1 [SM 334]
DMSO	CCN1CCN(c2cc(Cl)nc(NCCCNc3ccnc4cc(Cl)ccc34)n2)CC1 [SM 718]
DMSO	OCCCCNc1nc(NCCNc2ccnc3cc(Cl)ccc23)nc(N2CCOCC2)n1 [SM 360]
DMSO	Cc1cc(NCCCCNc2ccnc3cc(Cl)ccc23)nc(N2CCCCC2)n1 [SM 499]
DMSO	COc1ccc(Nc2nc(NCCNc3c4ccc(Cl)cc4nc4ccc(OC)cc34)nc(N3CCN(c4ccccc4)CC3)n2)cc1 [ATH 164]
DMSO	Clc1ccc2c(NCCNc3nc(Cl)nc(Nc4ccccc4)n3)ccnc2c1 [SM 136]
DMSO	Clc1ccc2c(NCCCCNc3nc(Nc4ccccc4)nc(N4CCOCC4)n3)ccnc2c1 [SM 359]
DMSO	Clc1ccc2c(NCCCNc3nc(Cl)cc(Cl)n3)ccnc2c1 [SM 710B]
DMSO	Cc1ccccc1Nc1nc(Nc2ccccc2C)nc(NC(C)CNc2ccnc3cc(Cl)ccc23)n1 (stereo not drawn) [SM 146]
DMSO	Cc1cc(NCCCCNc2ccnc3cc(Cl)ccc23)nc(Cl)n1 [SM 498A]
DMSO	COc1ccc(Nc2cc(C)nc(N3CCN(c4ccnc5cc(Cl)ccc45)CC3)n2)cc1 [ATH 245]
DMSO	COc1ccc(Nc2nc(NCCCCNc3ccnc4cc(Cl)ccc34)nc(N3CCOCC3)n2)cc1 [SM 356]
DMSO	Clc1ccc2c(NCCCNc3cc(Cl)nc(Cl)n3)ccnc2c1 [SM 710A]
DMSO	Cc1cc(Nc2ccc(F)cc2)nc(N2CCN(c3ccnc4cc(Cl)ccc34)CC2)n1 [ATH 247]

SOLUBILITY	Structure (SMILES)
DMSO	Clc1ccc2c(NCCNc3ccnc(N4CCOCC4)n3)ccnc2c1 [SM 731]
DMSO	Cc1cc(NCCCNc2ccnc3cc(Cl)ccc23)nc(N2CCCCC2)n1 [SM 485]
DMSO	Cc1cc(NCCCCCCNc2ccnc3cc(Cl)ccc23)nc(Cl)n1 [SM 504A]
DMSO	Cc1cc(NCCCCCCNc2ccnc3cc(Cl)ccc23)nc(N2CCN(C)CC2)n1 [SM 507]
DMSO	Clc1ccc2c(N3CCN(c4ccnc(Cl)n4)CC3)ccnc2c1 [ATH 218]
DMSO	CN1CCN(c2ccnc(NCCNc3ccnc4cc(Cl)ccc34)n2)CC1 [SM 734]
DMSO	Clc1ccc2c(NCCNc3cc(Cl)nc(N4CCOCC4)n3)ccnc2c1 [SM 696]
DMSO	CN1CCN(c2nccc(NCCCNc3ccnc4cc(Cl)ccc34)n2)CC1 [SM 722]
DMSO	Cc1cc(NCCCCNc2ccnc3cc(Cl)ccc23)nc(N2CCOCC2)n1 [SM 500]
DMSO	Clc1ccc(Nc2ccnc(N3CCN(c4ccnc5cc(Cl)ccc45)CC3)n2)cc1 [ATH 227]
DMSO	COc1cc(Nc2nc(NCCNc3c4ccc(Cl)cc4nc4ccc(OC)cc34)nc(N3CCN(c4ccccc4)CC3)n2)cc(OC)c1 [ATH 170]
DMSO	Cc1cc(NCCCNc2ccnc3cc(Cl)ccc23)nc(Cl)n1 [SM 484A]
DMSO	OCCCNc1nc(NCCCCNc2ccnc3cc(Cl)ccc23)nc(N2CCCCC2)n1 [SM 372]
DMSO	Cc1cc(NCCCCCCNc2ccnc3cc(Cl)ccc23)nc(N2CCOCC2)n1 [SM 506]
DMSO	Clc1ccc2c(NCCCNc3nc(Cl)cc(N4CCOCC4)n3)ccnc2c1 [SM 716]
DMSO	Clc1ccc2c(NCCCNc3nccc(N4CCOCC4)n3)ccnc2c1 [SM 725]
DMSO	CCN1CCN(c2cc(Cl)nc(NCCNc3ccnc4cc(Cl)ccc34)n2)CC1 [SM 704]
DMSO	Clc1ccc2c(N3CCN(c4ccnc(N5CCOCC5)n4)CC3)ccnc2c1 [ATH 228]
DMSO	Clc1ccc2c(NCCNc3ccnc(N4CCCCC4)n3)ccnc2c1 [SM 730]
DMSO	Clc1ccc2c(NCCNc3nc(N4CCOCC4)nc(N4CCOCC4)n3)ccnc2c1 [SM 142]

Structure (SMILES)	SOLUBILITY
CCN1CCN(c2nc(C)cc(NCCCNc3ccnc4cc(Cl)ccc34)n2)CC1 [SM 497]	DMSO

same assay, conditions: solvent named, Table 4

SOLUBILITY	Structure (SMILES)
DMSO	Cc1ccc(Nc2ccnc(NCCCNc3ccnc4cc(Cl)ccc34)n2)cc1 [DKG806]
DMSO	Clc1ccc(Nc2ccnc(NCCCCNc3ccnc4cc(Cl)ccc34)n2)cc1 [DKG815]
DMSO	Cc1ccc(Nc2cc(C)nc(NCCCNc3ccnc4cc(Cl)ccc34)n2)cc1 [DKG858]
DMSO	Cc1cc(Nc2ccc(Br)cc2)nc(NCCCCNc2ccnc3cc(Cl)ccc23)n1 [DKG851]
DMSO	Clc1ccc(Nc2ccnc(NCCNc3ccnc4cc(Cl)ccc34)n2)cc1 [DKG813]
DMSO	COc1ccc(Nc2ccnc(NCCNc3ccnc4cc(Cl)ccc34)n2)cc1 [DKG825]
DMSO	Cc1cc(Nc2ccc(Br)cc2)nc(NCCCNc2ccnc3cc(Cl)ccc23)n1 [DKG850]
DMSO	Clc1ccc2c(NCCCCNc3nccc(Nc4ccc(Br)cc4)n3)ccnc2c1 [DKG811]
DMSO	Cc1cc(Nc2ccc(Cl)cc2)nc(NCCCCNc2ccnc3cc(Cl)ccc23)n1 [DKG847]
DMSO	Clc1ccc2c(NCCCNc3nccc(Nc4ccccc4)n3)ccnc2c1 [DKG822]
DMSO	Clc1ccc2c(NCCCNc3nccc(Nc4ccc(Br)cc4)n3)ccnc2c1 [DKG810]
DMSO	Cc1cc(Nc2ccccc2)nc(NCCCNc2ccnc3cc(Cl)ccc23)n1 [DKG834]
DMSO	Fc1ccc(Nc2ccnc(NCCNc3ccnc4cc(Cl)ccc34)n2)cc1 [DKG817]
DMSO	Cc1ccc(Nc2cc(C)nc(NCCCCNc3ccnc4cc(Cl)ccc34)n2)cc1 [DKG859]
DMSO	Clc1ccc2c(NCCNc3nccc(Nc4ccccc4)n3)ccnc2c1 [DKG821]
DMSO	Cc1cc(Nc2ccc(F)cc2)nc(NCCCNc2ccnc3cc(Cl)ccc23)n1 [DKG854]

same assay, conditions: solvents listed for the compound

SOLUBILITY	Structure (SMILES)
MeOH, DMSO	OCCCNc1nccc(NCCCCNc2ccnc3cc(Cl)ccc23)n1 [MT1-157]
MeOH, DMSO	Cc1cc(NCCCNc2ccnc3cc(Cl)ccc23)nc(NCCO)n1 [MT1-145]
MeOH, DMSO	Cc1cc(NCCCCNc2ccnc3cc(Cl)ccc23)nc(NCCO)n1 [MT1-192]
MeOH, DMSO	Cc1cc(NCCCCNc2ccnc3cc(Cl)ccc23)nc(NCCCO)n1 [MT1-193]
MeOH, DMSO	OCCNc1nccc(NCCCCNc2ccnc3cc(Cl)ccc23)n1 [MT1-156]
MeOH, DMSO	Cc1cc(NCCCNc2ccnc3cc(Cl)ccc23)nc(NCCCO)n1 [MT1-146]
MeOH, DMSO	Cc1cc(NCCNc2ccnc3cc(Cl)ccc23)nc(NCCO)n1 [MT1-185]
MeOH, DMSO	Cc1cc(NCCNc2ccnc3cc(Cl)ccc23)nc(NCCCCCCO)n1 [MT1-191]
MeOH, DMSO	OCCCCCCNc1nccc(NCCCCNc2ccnc3cc(Cl)ccc23)n1 [MT1-163]
MeOH, DMSO	OCCCCNc1nccc(NCCCNc2ccnc3cc(Cl)ccc23)n1 [MT1-122]
